Patent EP4635500A1, “THERAPEUTIC AGENT FOR BACTERIAL INFECTION” (Sumitomo Pharma Co., Ltd., priority 2022, dated 2024)
Converted amounts (≈) assume the structure as drawn. Read-outs that look alike come from different tables or passages of the source.

Test system: Enterobacterales
Experiment: MIC, broth microdilution, CDC/FDA Antibiotic Resistance Isolate Bank (Example 7, Tables 8, 11, 12)
Type: cell-based
Conditions: for MIC: read-out: MIC

Compound `C[C@H]1COc2c(N3CCN(C)CC3)c(F)cc3c(=O)c(C(=O)O)cn1c23` [Levofloxacin, levofloxacin] has an MIC (Klebsiella aerogenes, Enterobacter aerogenes, KUB No. 5658, AR Bank # 161) of 0.12 µg/mL (≈ 0.332 µM), an MIC (Klebsiella aerogenes, Enterobacter aerogenes, KUB No. 5777, AR Bank # 431) of 1 µg/mL (≈ 2.77 µM) and an MIC (Klebsiella oxytoca, KUB No. 5644, AR Bank # 147) of 0.06 µg/mL (≈ 0.166 µM). The MIC (Klebsiella oxytoca, KUB No. 5771, AR Bank # 375) was 0.12 µg/mL (≈ 0.332 µM), the MIC (Klebsiella oxytoca, KUB No. 5776, AR Bank # 380) was 0.5 µg/mL (≈ 1.38 µM) and the MIC (Klebsiella ozaenae, KUB No. 5548, AR Bank# 51) was 16 µg/mL (≈ 44.3 µM). The MIC (Klebsiella pnemnonine, KUB No. 5758, AR Bank # 362) was 64 µg/mL (≈ 177 µM), the MIC (Klebsiella pneumoniae, KUB No. 55, AR Bank# 47) was 64 µg/mL (≈ 177 µM) and the MIC (Klebsiella pneumoniae, KUB No. 5531, AR Bank# 34) was 0.5 µg/mL (≈ 1.38 µM). The MIC (Klebsiella pneumoniae, KUB No. 5536, AR Bank# 39) was 8 µg/mL (≈ 22.1 µM), the MIC (Klebsiella pneumoniae, KUB No. 5537, AR Bank# 40) was 32 µg/mL (≈ 88.6 µM) and the MIC (Klebsiella pneumoniae, KUB No. 5538, AR Bank# 41) was 8 µg/mL (≈ 22.1 µM). The MIC (Klebsiella pneumoniae, KUB No. 5540, AR Bank# 43) was 2 µg/mL (≈ 5.53 µM), the MIC (Klebsiella pneumoniae, KUB No. 5541, AR Bank# 44) was 8 µg/mL (≈ 22.1 µM) and the MIC (Klebsiella pneumoniae, KUB No. 5543, AR Bank# 46) was 32 µg/mL (≈ 88.6 µM). It also gave an MIC (Klebsiella pneumoniae, KUB No. 5546, AR Bank# 49) greater than 64 µg/mL, an MIC (Klebsiella pneumoniae, KUB No. 5603, AR Bank # 106) greater than 64 µg/mL and an MIC (Klebsiella pneumoniae, KUB No. 5604, AR Bank # 107) of 64 µg/mL (≈ 177 µM). The MIC (Klebsiella pneumoniae, KUB No. 5606, AR Bank # 109) was greater than 64 µg/mL, the MIC (Klebsiella pneumoniae, KUB No. 5609, AR Bank # 112) was 16 µg/mL (≈ 44.3 µM) and the MIC (Klebsiella pneumoniae, KUB No. 5610, AR Bank # 113) was 16 µg/mL (≈ 44.3 µM). The MIC (Klebsiella pneumoniae, KUB No. 5612, AR Bank # 115) was 32 µg/mL (≈ 88.6 µM), the MIC (Klebsiella pneumoniae, KUB No. 5614, AR Bank # 117) was 4 µg/mL (≈ 11.1 µM) and the MIC (Klebsiella pneumoniae, KUB No. 5617, AR Bank # 120) was 64 µg/mL (≈ 177 µM). It also gave an MIC (Klebsiella pneumoniae, KUB No. 5622, AR Bank # 125) of 64 µg/mL (≈ 177 µM), an MIC (Klebsiella pneumoniae, KUB No. 5623, AR Bank # 126) of 0.12 µg/mL (≈ 0.332 µM) and an MIC (Klebsiella pneumoniae, KUB No. 5626, AR Bank # 129) of 64 µg/mL (≈ 177 µM). It also gave an MIC (Klebsiella pneumoniae, KUB No. 5632, AR Bank # 135) of 64 µg/mL (≈ 177 µM), an MIC (Klebsiella pneumoniae, KUB No. 5635, AR Bank # 138) greater than 64 µg/mL and an MIC (Klebsiella pneumoniae, KUB No. 5636, AR Bank # 139) of 8 µg/mL (≈ 22.1 µM). It also gave an MIC (Klebsiella pneumoniae, KUB No. 5637, AR Bank # 140) of 16 µg/mL (≈ 44.3 µM), an MIC (Klebsiella pneumoniae, KUB No. 5638, AR Bank # 141) of 8 µg/mL (≈ 22.1 µM) and an MIC (Klebsiella pneumoniae, KUB No. 5639, AR Bank # 142) of 8 µg/mL (≈ 22.1 µM). The MIC (Klebsiella pneumoniae, KUB No. 5640, AR Bank # 143) was 64 µg/mL (≈ 177 µM), the MIC (Klebsiella pneumoniae, KUB No. 5642, AR Bank # 145) was 32 µg/mL (≈ 88.6 µM) and the MIC (Klebsiella pneumoniae, KUB No. 5643, AR Bank # 146) was 64 µg/mL (≈ 177 µM). For the same compound, the MIC (Klebsiella pneumoniae, KUB No. 5645, AR Bank # 148) was 64 µg/mL (≈ 177 µM), the MIC (Klebsiella pneumoniae, KUB No. 5649, AR Bank # 152) was 32 µg/mL (≈ 88.6 µM) and the MIC (Klebsiella pneumoniae, KUB No. 5650, AR Bank # 153) was greater than 64 µg/mL. For the same compound, the MIC (Klebsiella pneumoniae, KUB No. 5655, AR Bank # 158) was 16 µg/mL (≈ 44.3 µM), the MIC (Klebsiella pneumoniae, KUB No. 5657, AR Bank # 160) was 0.12 µg/mL (≈ 0.332 µM) and the MIC (Klebsiella pneumoniae, KUB No. 5757, AR Bank # 361) was 64 µg/mL (≈ 177 µM). It also gave an MIC (Klebsiella pneumoniae, KUB No. 5759, AR Bank # 363) of 64 µg/mL (≈ 177 µM), an MIC (Klebsiella pneumoniae, KUB No. 5760, AR Bank # 364) of 64 µg/mL (≈ 177 µM) and an MIC (Klebsiella pneumoniae, KUB No. 5772, AR Bank # 376) of 16 µg/mL (≈ 44.3 µM). The MIC (Klebsiella pneumoniae, Klebsiella pneumoniae KUB No. 5784, AR Bank #438) was 64 µg/mL (≈ 177 µM), the MIC (Klebsiella pneumoniae, Klebsiella pneumoniae KUB No. 5797, AR Bank #453) was 64 µg/mL (≈ 177 µM) and the MIC (Klebsiella pneumoniae, Klebsiella pneumoniae KUB No. 5809, AR Bank #504) was 0.5 µg/mL (≈ 1.38 µM). It also gave an MIC (Klebsiella pneumoniae, Klebsiella pneumoniae KUB No. 5810, AR Bank #505) of 1 µg/mL (≈ 2.77 µM), an MIC (Klebsiella pneumoniae, Klebsiella pneumoniae KUB No. 5811, AR Bank #506) of 4 µg/mL (≈ 11.1 µM) and an MIC (Klebsiella pneumoniae, Klebsiella pneumoniae KUB No. 5812, AR Bank #507) greater than 64 µg/mL. For the same compound, the MIC (Klebsiella pneumoniae, Klebsiella pneumoniae KUB No. 5827, AR Bank #522) was 32 µg/mL (≈ 88.6 µM), the MIC (Klebsiella pneumoniae, Klebsiella pneumoniae KUB No. 5828, AR Bank #523) was 4 µg/mL (≈ 11.1 µM) and the MIC (Klebsiella pneumoniae, Klebsiella pneumoniae KUB No. 5829, AR Bank #524) was 32 µg/mL (≈ 88.6 µM). For the same compound, the MIC (Klebsiella pneumoniae, Klebsiella pneumoniae KUB No. 5830, AR Bank #525) was 64 µg/mL (≈ 177 µM), the MIC (Kluyvera ascorbata, KUB No. 5641, AR Bank # 144) was 2 µg/mL (≈ 5.53 µM) and the MIC (Morganella morganii, KUB No. 5554, AR Bank# 57) was 8 µg/mL (≈ 22.1 µM). For the same compound, the MIC (Morganella morganii, KUB No. 5630, AR Bank # 133) was 64 µg/mL (≈ 177 µM), the MIC (Morganella morganii, Morganella morganii KUB No. 5824, AR Bank #519) was 0.12 µg/mL (≈ 0.332 µM) and the MIC (Proteus mirabilis, KUB No. 5556, AR Bank# 59) was 8 µg/mL (≈ 22.1 µM). The MIC (Proteus mirabilis, KUB No. 5652, AR Bank # 155) was greater than 64 µg/mL, the MIC (Proteus mirabilis, KUB No. 5653, AR Bank # 156) was 2 µg/mL (≈ 5.53 µM) and the MIC (Proteus mirabilis, KUB No. 5656, AR Bank # 159) was 2 µg/mL (≈ 5.53 µM). It also gave an MIC (Proteus mirabilis, KUB No. 5773, AR Bank # 377) of 16 µg/mL (≈ 44.3 µM), an MIC (Proteus mirabilis, KUB No. 5775, AR Bank # 379) of 4 µg/mL (≈ 11.1 µM) and an MIC (Raoultella ornithinolvtica, KUB No. 5631, AR Bank # 134) of 0.5 µg/mL (≈ 1.38 µM). For the same compound, the MIC (Salmonella enterica, Salmonella Senftenberg, KUB No. 5624, AR Bank # 127) was 32 µg/mL (≈ 88.6 µM), the MIC (Serratia marcescens, KUB No. 5596, AR Bank # 99) was 0.25 µg/mL (≈ 0.692 µM) and the MIC (Serratia marcescens, KUB No. 5618, AR Bank # 121) was 0.12 µg/mL (≈ 0.332 µM). For the same compound, the MIC (Serratia marcescens, KUB No. 5619, AR Bank # 122) was 0.5 µg/mL (≈ 1.38 µM), the MIC (Serratia marcescens, KUB No. 5620, AR Bank # 123) was 0.25 µg/mL (≈ 0.692 µM) and the MIC (Serratia marcescens, KUB No. 5621, AR Bank # 124) was 0.5 µg/mL (≈ 1.38 µM). The MIC (Serratia marcescens, KUB No. 5627, AR Bank # 130) was 0.12 µg/mL (≈ 0.332 µM), the MIC (Serratia marcescens, KUB No. 5628, AR Bank # 131) was 0.5 µg/mL (≈ 1.38 µM) and the MIC (Serratia marcescens, Serratia marcescens KUB No. 5825, AR Bank #520) was 0.5 µg/mL (≈ 1.38 µM). For the same compound, the MIC (Serratia marcescens, Serratia marcescens KUB No. 5826, AR Bank #521) was 16 µg/mL (≈ 44.3 µM), the MIC50 (carbapenemase-producing Enterobacterales, Metallo-β-lactamase (N = 47), read-out: MIC50) was 32 µg/mL (≈ 88.6 µM) and the MIC90 (carbapenemase-producing Enterobacterales, Metallo-β-lactamase (N = 47), read-out: MIC90) was greater than 64 µg/mL.
